The values that follow come from article PMC9436767, “Optical control of the β2-adrenergic receptor with opto-prop-2: A cis-active azobenzene analog of propranolol” (iScience, 2022).

Molecules are shown by their SMILES.

Experiment [1] addresses T1, β2-AR (Homo sapiens, UniProt P07550). The experiment in a line: Kinetic β-arrestin2 recruitment to β2-AR with 360 nm light flashes. Also noted: expressed in transfected cells; host or cells: HEK293T, transient (PEI). The format is cell-based. The conditions noted are these: 1 μM with 32 nM isoprenaline; six 5-min cycles of 360 nm flashes. The method, then: It was further explored whether the activity of the β2-AR could be modulated dynamically by treating cells with light (Figure 5). Cells that overexpress a split-nanoluc luciferase biosensor system for βarrestin2 recruitment to the β2-AR were treated with isoprenaline in the presence of Opto-prop-2. A time-dependent activation of the receptor is observed for 10 min after which cells were pulsed with light flashes of 360 nm.
Cells incubated with Opto-prop-2 are depicted in green and magenta before and after illumination, respectively. Data points represent the mean ± SEM of the three experiments, normalized to the luminescence at 10 min as 100%.
HEK293T cells were transiently transfected with 2 μg plasmid DNA per million using linear PEI at a DNA:PEI weight-ratio of 1:6. ([Zarca et al., 2021]) The used DNA plasmids were β2-AR-SmBit (0.4 μg), β-arrestin2-LgBit (0.6 μg) and pcDEF3 (non-coding DNA; 1 μg). The DNA/PEI transfection mix in 150 mM NaCL was vortexed and incubated for 15 min before adding it to a cell suspension with a final concentration of 300,000 cell/mL. Cells were then immediately plated 30,000 cells/well on a white 96-well plate (Greiner). […] After 10 min the protocol setting were switched to treat cells repeadetly with 360 nm light flashes (40 times 200 flashes over 5 min) followed after each 5 min cycle with detection of luminescence, up to a total detection time of 40 min.
A general note: Recruitment of arrestin is a read-out of receptor activation apart from second messengers.

Experiment [2] has as its target T1, β2-AR. The experiment in a line: NanoBiT complementation: mini-Gαs recruitment to β2-AR, Schild analysis.
Experimental: Mixed stable populations of HEK-β2AR-β-arrestin2, or HEK-β2AR-mGs cells were generated by selection in G418 (0.8 mg^−1) and zeocin (200 μg mL^−1) for 7–10 days, in DMEM, supplemented with 10% fetal bovine serum (FBS; Sigma Aldrich).
The antagonist affinity (KD) was then estimated by a Schild plot of log [CR-1] against log [B] (the antagonist concentration) using the relationship: Log[CR−1]=Log[B]−LogKD.

T1 sequence (P07550 whole entry): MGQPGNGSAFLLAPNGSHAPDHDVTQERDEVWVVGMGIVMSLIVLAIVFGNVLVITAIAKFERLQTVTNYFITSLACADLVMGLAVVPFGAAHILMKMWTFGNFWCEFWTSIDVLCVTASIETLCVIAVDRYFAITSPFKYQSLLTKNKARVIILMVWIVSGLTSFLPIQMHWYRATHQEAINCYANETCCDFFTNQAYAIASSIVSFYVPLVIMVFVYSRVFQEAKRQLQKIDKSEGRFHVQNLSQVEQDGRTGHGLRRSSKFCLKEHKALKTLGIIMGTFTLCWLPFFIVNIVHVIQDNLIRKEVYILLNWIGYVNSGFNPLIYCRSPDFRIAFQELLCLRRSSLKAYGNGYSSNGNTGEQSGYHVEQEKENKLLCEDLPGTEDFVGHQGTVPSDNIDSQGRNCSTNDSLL

With `CC(C)NCC(O)COc1cccc(N=Nc2ccccc2)c1` (stereo not drawn) [Opto-prop-2], the “β2-AR activity (β-arrestin2 recruitment) after 360 nm light flashes” value in experiment [1] was “a drop in β2-AR activity is observed”. The compound also had a Kb in experiment [2] of 0.0251 µM. Further, in experiment [2] (at PSScis, agonist isoprenaline), the “slope of the Schild-plot, mini-Gαs recruitment” value is on record as 1.2.
